Inhibition data for 2 molecules are collected here from PMC3382171 (PLoS ONE, 2012).

Common to all, as to assay: biochemical
Assay [1] addresses T1, MKK7beta (Homo sapiens, UniProt O14733).
T1 construct: gene MAP2K7; isoform beta
To be noted: read-out: Upstate KSS % inhibition at 1uM. The method, then: In these selectivity assays the concentration of ATP was set to the Km value of ATP for each kinase tested to allow for a relative potency comparison between the various kinases. The compounds were tested at 1 µM final concentration. […] (A) Kinase selectivity screen (KSS) performed at Upstate Biotechnology. […] (B) KSS performed at University of Dundee (Division of Signal Transduction Therapy). […] (PDF) Click here for additional data file.

Assay [2] has as its target ERBB4 (HER4) (Homo sapiens, UniProt Q15303). Also noted: Invitrogen SelectScreen kinase panel, percent inhibition at 1 uM, ATP at Km. To be noted: read-out: Invitrogen KSS %Inh at 1 µM. The method, then: (§1) The METi and RAFi were screened against kinase panels (SelectScreen, Invitrogen; University of Dundee, Division of Signal Transduction Therapy, UK; Upstate Biotechnology/Millipore, Billerica, MA). In these selectivity assays the concentration of ATP was set to the Km value of ATP for each kinase tested to allow for a relative potency comparison between the various kinases. The compounds were tested at 1 µM final concentration. […] Supplementary file pone.0039653.s002.pdf: Figure S2 Kinase Selectivity Screen of RAFi. (A) Kinase selectivity screen (KSS) performed at University of Dundee (Division of Signal Transduction Therapy). Values in % inhibition of phosphorylation given 1 µM of RAFi compared to control. (B) KSS performed at Invitrogen (Selectscreen Service) compared to control. Values in % inhibition of phosphorylation given 1 µM of RAFi. (C) Cell based dose response kinase inhibition of indicated kinases by RAFi. (PDF) Click here for additional data file.

The target of assay [3] is JAK3 (Homo sapiens, UniProt P52333). Also noted: Invitrogen SelectScreen kinase panel, percent inhibition at 1 uM, ATP at Km. To be noted: read-out: Invitrogen KSS %Inh at 1 µM. On the procedure: as §1
Sequence of JAK3 (P52333 whole entry): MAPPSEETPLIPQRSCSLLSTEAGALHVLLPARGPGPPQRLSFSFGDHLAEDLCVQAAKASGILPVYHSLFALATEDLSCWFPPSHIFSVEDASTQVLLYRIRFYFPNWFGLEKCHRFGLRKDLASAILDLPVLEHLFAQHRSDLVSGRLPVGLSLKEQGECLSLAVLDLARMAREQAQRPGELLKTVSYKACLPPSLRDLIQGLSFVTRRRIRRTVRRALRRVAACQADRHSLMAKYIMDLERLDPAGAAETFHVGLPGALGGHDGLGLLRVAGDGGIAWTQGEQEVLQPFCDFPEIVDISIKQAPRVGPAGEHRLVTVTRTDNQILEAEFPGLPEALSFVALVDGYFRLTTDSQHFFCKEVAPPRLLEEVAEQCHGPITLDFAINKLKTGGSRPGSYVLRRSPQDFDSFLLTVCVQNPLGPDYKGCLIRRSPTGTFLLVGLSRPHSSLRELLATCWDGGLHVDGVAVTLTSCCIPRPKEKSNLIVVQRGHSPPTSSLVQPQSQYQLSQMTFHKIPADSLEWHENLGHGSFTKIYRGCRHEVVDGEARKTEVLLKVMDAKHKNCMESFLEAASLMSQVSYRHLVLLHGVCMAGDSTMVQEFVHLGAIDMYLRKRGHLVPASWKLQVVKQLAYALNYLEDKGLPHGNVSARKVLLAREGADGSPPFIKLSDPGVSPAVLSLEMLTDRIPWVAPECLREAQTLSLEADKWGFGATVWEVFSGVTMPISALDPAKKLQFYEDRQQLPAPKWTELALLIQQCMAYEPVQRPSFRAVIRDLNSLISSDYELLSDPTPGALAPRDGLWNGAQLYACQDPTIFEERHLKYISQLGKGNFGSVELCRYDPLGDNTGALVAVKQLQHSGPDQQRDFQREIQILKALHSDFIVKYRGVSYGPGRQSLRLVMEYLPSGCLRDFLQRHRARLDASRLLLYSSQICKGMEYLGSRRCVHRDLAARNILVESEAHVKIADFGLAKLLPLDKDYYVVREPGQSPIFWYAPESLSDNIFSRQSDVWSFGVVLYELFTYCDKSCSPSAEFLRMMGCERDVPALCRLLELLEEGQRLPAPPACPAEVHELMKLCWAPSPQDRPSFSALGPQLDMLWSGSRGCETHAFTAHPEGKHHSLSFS
The target of assay [4] is MAP3K8 (COT) (Homo sapiens, UniProt P41279). Also noted: Invitrogen SelectScreen kinase panel, percent inhibition at 1 uM, ATP at Km. To be noted: read-out: Invitrogen KSS %Inh at 1 µM. The method, then:
as §1

For assay [5], the target named is PDGFRA (PDGFR alpha) (Homo sapiens, UniProt P16234). Also noted: Invitrogen SelectScreen kinase panel, percent inhibition at 1 uM, ATP at Km. To be noted: read-out: Invitrogen KSS %Inh at 1 µM. On the procedure:
as §1

The target in assay [6] is TEK (Tie2) (Homo sapiens, UniProt Q02763). Further details: Invitrogen SelectScreen kinase panel, percent inhibition at 1 uM, ATP at Km. The conditions noted are these: read-out: Invitrogen KSS %Inh at 1 µM. On the procedure: as §1
For assay [7], the target named is IGF1R (Homo sapiens, UniProt P08069). Further details: Invitrogen SelectScreen kinase panel, percent inhibition at 1 uM, ATP at Km. To be noted: read-out: Invitrogen KSS %Inh at 1 µM. On the procedure:
as §1

Assay [8] addresses CHEK2 (CHK2) (Homo sapiens, UniProt O96017). Also noted: Invitrogen SelectScreen kinase panel, percent inhibition at 1 uM, ATP at Km. To be noted: read-out: Invitrogen KSS %Inh at 1 µM. The method, then: as §1
In assay [9] the target is NEK2 (Homo sapiens, UniProt P51955). Also noted: Invitrogen SelectScreen kinase panel, percent inhibition at 1 uM, ATP at Km. The conditions noted are these: read-out: Invitrogen KSS %Inh at 1 µM. The method, then:
as §1

In assay [10] the target is ACVR1B (ALK4) (Homo sapiens, UniProt P36896). Also noted: Invitrogen SelectScreen kinase panel, percent inhibition at 1 uM, ATP at Km. The conditions noted are these: read-out: Invitrogen KSS %Inh at 1 µM. The method, then: as §1
Assay [11] addresses EGFR (ErbB1) L861Q (Homo sapiens, UniProt P00533, L861Q). Also noted: Invitrogen SelectScreen kinase panel, percent inhibition at 1 uM, ATP at Km. The conditions noted are these: read-out: Invitrogen KSS %Inh at 1 µM. On the procedure: as §1
In assay [12] the target is ITK (Homo sapiens, UniProt Q08881). Also noted: Invitrogen SelectScreen kinase panel, percent inhibition at 1 uM, ATP at Km. The conditions noted are these: read-out: Invitrogen KSS %Inh at 1 µM. On the procedure:
as §1

Assay [13] has as its target ROCK1 (Homo sapiens, UniProt Q13464). Further details: Invitrogen SelectScreen kinase panel, percent inhibition at 1 uM, ATP at Km. To be noted: read-out: Invitrogen KSS %Inh at 1 µM. The method, then: as §1
For assay [14], the target named is ALK (Homo sapiens, UniProt Q9UM73). Further details: Invitrogen SelectScreen kinase panel, percent inhibition at 1 uM, ATP at Km. The conditions noted are these: read-out: Invitrogen KSS %Inh at 1 µM. On the procedure:
as §1

The target of assay [15] is AKT1 (PKB alpha) (Homo sapiens, UniProt P31749). Further details: Invitrogen SelectScreen kinase panel, percent inhibition at 1 uM, ATP at Km. To be noted: read-out: Invitrogen KSS %Inh at 1 µM. The method, then:
as §1

Assay [16] has as its target SYK (Homo sapiens, UniProt P43405). Also noted: Invitrogen SelectScreen kinase panel, percent inhibition at 1 uM, ATP at Km. The conditions noted are these: read-out: Invitrogen KSS %Inh at 1 µM. The method, then:
as §1

Assay [17] deals with FLT3 D835Y (Homo sapiens, UniProt P36888, D835Y). Further details: Invitrogen SelectScreen kinase panel, percent inhibition at 1 uM, ATP at Km. To be noted: read-out: Invitrogen KSS %Inh at 1 µM. On the procedure: as §1
The target of assay [18] is SGK (SGK1) (Homo sapiens, UniProt O00141). Also noted: Invitrogen SelectScreen kinase panel, percent inhibition at 1 uM, ATP at Km. To be noted: read-out: Invitrogen KSS %Inh at 1 µM. The method, then: as §1
In assay [19] the target is AKT3 (PKB gamma) (Homo sapiens, UniProt Q9Y243). Also noted: Invitrogen SelectScreen kinase panel, percent inhibition at 1 uM, ATP at Km. To be noted: read-out: Invitrogen KSS %Inh at 1 µM. On the procedure: as §1
Sequence of AKT3 (PKB gamma) (Q9Y243 whole entry): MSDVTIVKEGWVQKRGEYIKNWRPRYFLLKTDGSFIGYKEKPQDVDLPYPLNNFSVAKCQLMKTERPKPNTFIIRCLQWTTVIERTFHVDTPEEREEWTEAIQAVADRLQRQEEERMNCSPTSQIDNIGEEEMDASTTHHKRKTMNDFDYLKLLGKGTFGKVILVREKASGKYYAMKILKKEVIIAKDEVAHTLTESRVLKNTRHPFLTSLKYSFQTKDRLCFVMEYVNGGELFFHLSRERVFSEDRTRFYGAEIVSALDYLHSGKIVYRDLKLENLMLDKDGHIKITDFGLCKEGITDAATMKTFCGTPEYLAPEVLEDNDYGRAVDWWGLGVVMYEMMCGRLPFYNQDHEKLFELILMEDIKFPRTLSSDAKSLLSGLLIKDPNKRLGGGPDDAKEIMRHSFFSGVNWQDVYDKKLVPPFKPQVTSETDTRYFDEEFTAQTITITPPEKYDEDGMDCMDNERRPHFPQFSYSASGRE
Assay [20] deals with T2, AMPK A1/B1/G1 (Homo sapiens, UniProt Q13131).
T2 construct: gene PRKAA1; A1/B1/G1
Also noted: Invitrogen SelectScreen kinase panel, percent inhibition at 1 uM, ATP at Km. The conditions noted are these: read-out: Invitrogen KSS %Inh at 1 µM. The method, then: as §1

The target in assay [21] is PRKCZ (PKC zeta) (Homo sapiens, UniProt Q05513). Also noted: Invitrogen SelectScreen kinase panel, percent inhibition at 1 uM, ATP at Km. To be noted: read-out: Invitrogen KSS %Inh at 1 µM. The method, then:
as §1

Sequence of ERBB4 (HER4) (Q15303 whole entry): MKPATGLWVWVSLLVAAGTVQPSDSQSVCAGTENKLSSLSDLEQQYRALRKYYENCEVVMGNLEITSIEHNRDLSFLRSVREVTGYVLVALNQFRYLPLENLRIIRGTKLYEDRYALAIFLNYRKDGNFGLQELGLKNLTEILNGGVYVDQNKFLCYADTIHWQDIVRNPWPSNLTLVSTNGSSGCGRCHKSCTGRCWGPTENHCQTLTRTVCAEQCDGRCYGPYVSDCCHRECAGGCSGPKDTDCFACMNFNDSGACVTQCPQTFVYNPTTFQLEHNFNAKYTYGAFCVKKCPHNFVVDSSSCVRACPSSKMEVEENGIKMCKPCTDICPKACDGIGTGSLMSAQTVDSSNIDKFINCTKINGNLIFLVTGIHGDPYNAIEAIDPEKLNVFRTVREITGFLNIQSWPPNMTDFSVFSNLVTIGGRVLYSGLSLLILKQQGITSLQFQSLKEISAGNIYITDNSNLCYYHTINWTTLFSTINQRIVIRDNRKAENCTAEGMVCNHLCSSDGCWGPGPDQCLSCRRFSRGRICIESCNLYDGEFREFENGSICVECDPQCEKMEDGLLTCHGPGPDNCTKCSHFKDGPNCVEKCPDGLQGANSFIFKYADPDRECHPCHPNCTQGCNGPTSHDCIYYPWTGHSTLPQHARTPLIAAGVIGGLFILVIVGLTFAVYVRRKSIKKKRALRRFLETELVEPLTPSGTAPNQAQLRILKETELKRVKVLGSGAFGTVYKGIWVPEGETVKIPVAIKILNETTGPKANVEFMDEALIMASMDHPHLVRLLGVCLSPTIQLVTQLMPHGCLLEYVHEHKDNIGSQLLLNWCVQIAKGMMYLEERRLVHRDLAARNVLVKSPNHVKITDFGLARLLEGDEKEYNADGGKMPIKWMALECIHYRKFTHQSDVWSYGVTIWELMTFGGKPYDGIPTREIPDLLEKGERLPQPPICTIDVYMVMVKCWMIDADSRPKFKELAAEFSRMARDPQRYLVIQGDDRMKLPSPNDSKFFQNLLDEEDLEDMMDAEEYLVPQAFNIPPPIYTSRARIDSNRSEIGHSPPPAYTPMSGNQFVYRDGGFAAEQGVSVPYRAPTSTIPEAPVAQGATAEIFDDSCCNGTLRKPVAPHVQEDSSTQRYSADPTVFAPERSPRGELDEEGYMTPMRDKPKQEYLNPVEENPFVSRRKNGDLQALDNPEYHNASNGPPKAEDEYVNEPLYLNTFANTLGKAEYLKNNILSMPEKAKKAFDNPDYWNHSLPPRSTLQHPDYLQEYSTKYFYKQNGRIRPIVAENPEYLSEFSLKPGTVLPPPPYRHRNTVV
Sequence of ROCK1 (Q13464 whole entry): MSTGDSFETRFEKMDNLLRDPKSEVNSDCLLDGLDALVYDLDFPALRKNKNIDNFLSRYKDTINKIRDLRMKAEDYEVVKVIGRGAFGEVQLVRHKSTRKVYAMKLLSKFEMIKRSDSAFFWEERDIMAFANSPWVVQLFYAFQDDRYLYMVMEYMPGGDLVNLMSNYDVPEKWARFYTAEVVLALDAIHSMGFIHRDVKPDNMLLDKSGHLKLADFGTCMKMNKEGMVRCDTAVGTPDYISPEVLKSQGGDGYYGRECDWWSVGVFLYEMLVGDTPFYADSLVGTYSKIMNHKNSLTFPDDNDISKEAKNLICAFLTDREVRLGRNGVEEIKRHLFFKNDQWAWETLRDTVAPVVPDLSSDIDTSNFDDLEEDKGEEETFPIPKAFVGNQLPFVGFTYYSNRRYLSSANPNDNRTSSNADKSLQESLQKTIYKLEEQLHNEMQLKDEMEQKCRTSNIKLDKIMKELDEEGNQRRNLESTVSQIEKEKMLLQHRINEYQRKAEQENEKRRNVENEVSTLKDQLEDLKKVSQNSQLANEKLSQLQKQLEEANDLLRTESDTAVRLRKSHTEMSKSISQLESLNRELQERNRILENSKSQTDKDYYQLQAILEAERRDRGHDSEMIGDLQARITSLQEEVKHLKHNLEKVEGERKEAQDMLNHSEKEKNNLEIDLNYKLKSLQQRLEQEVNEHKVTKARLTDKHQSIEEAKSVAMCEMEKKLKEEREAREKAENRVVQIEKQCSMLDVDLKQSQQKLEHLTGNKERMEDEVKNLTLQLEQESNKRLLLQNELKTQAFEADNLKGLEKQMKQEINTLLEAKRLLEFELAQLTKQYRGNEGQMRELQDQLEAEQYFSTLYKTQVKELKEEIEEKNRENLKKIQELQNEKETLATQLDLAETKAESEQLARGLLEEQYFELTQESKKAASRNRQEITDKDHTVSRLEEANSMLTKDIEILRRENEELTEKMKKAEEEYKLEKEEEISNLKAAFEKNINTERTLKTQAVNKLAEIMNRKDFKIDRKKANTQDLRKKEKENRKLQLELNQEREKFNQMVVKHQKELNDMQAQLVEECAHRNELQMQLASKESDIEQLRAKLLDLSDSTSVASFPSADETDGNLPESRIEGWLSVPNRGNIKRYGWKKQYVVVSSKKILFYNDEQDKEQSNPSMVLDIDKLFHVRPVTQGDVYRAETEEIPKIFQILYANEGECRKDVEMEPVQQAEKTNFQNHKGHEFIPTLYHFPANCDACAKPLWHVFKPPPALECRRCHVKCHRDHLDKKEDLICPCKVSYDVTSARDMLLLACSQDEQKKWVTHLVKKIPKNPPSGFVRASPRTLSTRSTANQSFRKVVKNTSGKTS
T1 sequence (O14733 whole entry, canonical isoform): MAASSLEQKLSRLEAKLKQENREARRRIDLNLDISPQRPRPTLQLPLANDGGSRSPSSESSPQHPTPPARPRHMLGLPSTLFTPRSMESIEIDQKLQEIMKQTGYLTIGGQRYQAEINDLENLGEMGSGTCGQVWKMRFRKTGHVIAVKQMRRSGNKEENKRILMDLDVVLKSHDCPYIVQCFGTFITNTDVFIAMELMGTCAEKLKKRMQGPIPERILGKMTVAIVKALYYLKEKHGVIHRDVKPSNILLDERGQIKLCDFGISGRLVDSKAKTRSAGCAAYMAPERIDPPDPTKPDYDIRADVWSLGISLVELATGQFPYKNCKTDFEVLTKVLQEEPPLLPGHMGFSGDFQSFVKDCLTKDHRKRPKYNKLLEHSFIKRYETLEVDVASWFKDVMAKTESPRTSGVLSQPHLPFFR

As for `OCCn1cc(-c2cnc3nnn(Cc4ccc5ncccc5c4)c3n2)cn1` [METi, PF-04217903], the inhibition at 1 µM in assay [1] was -2%.
For `N#CCCNc1nccc(-c2cn(CC(F)F)nc2-c2cnc3[nH]ccc3c2)n1` [RAFi, PF-04880594], the inhibition at 1 µM is 24% in assay [2]; 9% in assay [3]; 24% in [4]; 10% in assay [5]; 2% in assay [6]; 9% in assay [7]. For the same molecule, the inhibition at 1 µM stood at 7% in [8]; 40% in assay [9]; 7% in assay [10]; 5% in assay [11]; 0% in [12]; 4% in assay [13]. The inhibition at 1 µM in assay [14] is 23%; in assay [15], 5%; in [16], -35%; in assay [17], 57%; in [18] it was 7%; in assay [19] it was 7%. The inhibition at 1 µM is 16% in assay [20] and -7% in assay [21].
